How the values were obtained:
UCP1 = UCP1 expression-enhancing effect in skeletal muscle cells or adipocytes; format: cell-based
human white adipocytes = assay: Free fatty acid β-oxidation in human white adipocytes ([9,10(n)-3H]palmitic acid, 3H2O release); format: cell-based; settings: 10 μM, 48 hr, vs DMSO control
Experimental: After human fully differentiated white adipocytes had been prepared in the same manner as in Example 1, the supernatant was removed, and 500 μl of a medium which had been prepared by adding adequate amounts of oleic acid and palmitic acid to an adipocyte medium so that their concentrations were 0.67 mM and 0.33 mM, respectively, was added. Various kinds of test compounds were added to the medium in such a manner that their final concentrations were 10 μM, and subsequently, [9,10(n)-3H]palmitic acid (manufactured by Amersham Pharmacia, final concentration of 1 μCi/ml) was added to each well, and the cells were cultured at 37° C. for 48 hr. The test compounds were YM-16638 of a PPAR δ ligand, WY14643 of a PPAR α ligand, L755,507 of a β3 adrenergic receptor agonist and Rosiglitazone of a PPAR γ ligand. A control was prepared by adding DMSO, which was the solvent for the test compounds, in such a manner that the final concentration was 0.5%, and it was cultured in the same manner as the test compounds. In order to prevent the evaporation of ^3H2O produced by β-oxidation of the [9,10(n)-^3H]palmitic acid by the cells during culture, the culture plates were sealed with mini-culture filters (MS-30055) manufactured by Sumitomo Bakelite Co. Ltd.
After 48-hour culture, 200 μl of the supernatant of the medium was transferred to a 1.5-ml Eppendorf tube, 50 μl of 50% trichloroacetic acid was added, the tube was held on ice for 30 min to produce precipitates, and the mixture was centrifuged for 10 min at 15,000 rpm. Subsequently, in a 20-ml glass vial into which 500 μl of distilled water had been placed in advance, a cap-free 1.5-ml Eppendorf tube was placed, the total amount of the supernatant obtained above was placed into this Eppendorf tube, and the vial was tightly sealed with a polypropylene packing-attached lid. […] Into the ^3H2O-containing distilled water remaining in the vial, 5 ml of a liquid scintillation cocktail (Ultima Gold, manufactured by Packard) was added, and radioactivity was measured after sufficient mixing.

UCP2 = settings: J. Biol. Chem. 276, 10853-10860 (2001); cited from earlier work

SMILES: CC#CCC(C)[C@H](O)/C=C/[C@@H]1[C@H]2C/C(=C/CCCC(=O)O)C[C@H]2C[C@H]1O (stereo partly drawn) [Iloprost, 5-{(E)-(1S,5S,6R,7R)-7-hydroxy-6-[(E)-(3S,4RS)-3-hydroxy-4-methyl-5-octen-6-inyl]-bicyclo[3.3.0]-octan-3-ylidene} pentenoic acid]
- UCP1 expression-enhancing effect (UCP1): had a UCP1 expression-enhancing effect

SMILES: CN(CCOc1ccc(CC2SC(=O)NC2=O)cc1)c1ccccn1 (stereo not drawn) [Rosiglitazone]
- enhancement of β-oxidation in the cells (human white adipocytes): 15%

SMILES: CCCCC/C=C\C/C=C\C/C=C\C/C=C\CCCC(=O)O [arachidonic acid]
- expression of UCP2 (UCP2): increase the expression of UCP2

SMILES: CCCCCCNC(=O)Nc1ccc(S(=O)(=O)Nc2ccc(CCNC[C@H](O)COc3ccc(O)cc3)cc2)cc1 [L755,507]
- enhancement of β-oxidation in the cells (human white adipocytes): no enhancement

SMILES: CCCCC[C@H](O)/C=C/[C@@H]1[C@H]2C/C(=C/CCCC(=O)O)C[C@H]2C[C@H]1O [carbaprostacyclin, 6,9 α-methylene-11 α, 15S-dihydroxy-prosta-5E, 13E-dien-1-oic acid]
- expression of UCP2 (UCP2): increase the expression of UCP2
- UCP1 expression-enhancing effect (UCP1): had a UCP1 expression-enhancing effect

SMILES: Cc1cccc(Nc2cc(Cl)nc(SCC(=O)O)n2)c1C [WY14643]
- enhancement of β-oxidation in the cells (human white adipocytes): no enhancement
- UCP1 expression-enhancing effect (UCP1): hardly exhibit a UCP1 expression enhancing effect

SMILES: CCCc1c(OCCCOc2ccc(OCC(=O)O)cc2)ccc(C(C)=O)c1O [L-165041, 4-(3-(2-propyl-3-hydroxy-4-acetyl-phenoxy)propyloxy)-phenoxyacetic acid]
- expression of UCP2 (UCP2): increase the expression of UCP2
